Activity calls are given as the source filed them. The rule behind the calls is not given here.
Assays:
Mus musculus [1] = experiment: Antiinflammatory activity in DBA1 mouse model of collagen-induced inflammation assessed as reduction in rheumatoid arthritis score in paw at 6.6 mg/kg administered daily via oral gavage for 21 days starting from 21 days post-immunization and measured 3 times every week following booster immunization; type: functional, organism-based
[2] = molecular target: T1, Tyrosine-protein kinase JAK3 (Homo sapiens, UniProt P52333); experiment: Inhibition of GST-tagged JAK3 (unknown origin) using fluoresceinated peptide as substrate measured after 3 hrs by electrophoresis method
T1 sequence (P52333 whole entry): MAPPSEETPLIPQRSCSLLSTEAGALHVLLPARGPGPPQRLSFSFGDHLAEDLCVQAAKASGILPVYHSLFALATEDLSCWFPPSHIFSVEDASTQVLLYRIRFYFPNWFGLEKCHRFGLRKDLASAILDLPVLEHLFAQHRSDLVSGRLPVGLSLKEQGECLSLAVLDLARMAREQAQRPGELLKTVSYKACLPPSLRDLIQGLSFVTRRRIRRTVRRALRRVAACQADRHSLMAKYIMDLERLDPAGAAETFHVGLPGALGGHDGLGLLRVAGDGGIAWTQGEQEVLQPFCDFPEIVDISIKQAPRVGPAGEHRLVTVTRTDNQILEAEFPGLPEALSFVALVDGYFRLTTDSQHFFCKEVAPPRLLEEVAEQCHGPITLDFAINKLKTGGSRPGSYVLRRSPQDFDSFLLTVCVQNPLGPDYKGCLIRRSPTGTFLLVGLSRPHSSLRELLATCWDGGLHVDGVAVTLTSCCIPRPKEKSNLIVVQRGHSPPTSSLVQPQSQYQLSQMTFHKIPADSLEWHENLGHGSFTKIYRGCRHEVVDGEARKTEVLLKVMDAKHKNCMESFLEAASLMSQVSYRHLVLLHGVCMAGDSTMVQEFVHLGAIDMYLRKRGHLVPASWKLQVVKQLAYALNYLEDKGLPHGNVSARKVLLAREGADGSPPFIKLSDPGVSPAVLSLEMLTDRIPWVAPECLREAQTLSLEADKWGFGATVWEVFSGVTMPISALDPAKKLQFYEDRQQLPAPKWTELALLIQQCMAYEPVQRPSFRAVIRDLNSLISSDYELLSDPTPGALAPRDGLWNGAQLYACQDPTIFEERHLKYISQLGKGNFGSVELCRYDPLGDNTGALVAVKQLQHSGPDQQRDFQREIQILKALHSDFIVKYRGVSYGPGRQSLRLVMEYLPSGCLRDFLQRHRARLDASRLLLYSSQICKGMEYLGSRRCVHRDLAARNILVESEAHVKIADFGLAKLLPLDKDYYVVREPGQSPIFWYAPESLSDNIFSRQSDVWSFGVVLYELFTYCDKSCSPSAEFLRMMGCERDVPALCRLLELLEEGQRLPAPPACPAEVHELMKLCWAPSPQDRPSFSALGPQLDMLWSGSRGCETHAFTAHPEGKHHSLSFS

[3] = molecular target: Tyrosine-protein kinase JAK1 (Homo sapiens, UniProt P23458); experiment: Inhibition of GST-tagged JAK1 (unknown origin) using fluoresceinated peptide as substrate measured after 3 hrs by electrophoresis method
Chain of Tyrosine-protein kinase JAK1 (P23458 whole entry): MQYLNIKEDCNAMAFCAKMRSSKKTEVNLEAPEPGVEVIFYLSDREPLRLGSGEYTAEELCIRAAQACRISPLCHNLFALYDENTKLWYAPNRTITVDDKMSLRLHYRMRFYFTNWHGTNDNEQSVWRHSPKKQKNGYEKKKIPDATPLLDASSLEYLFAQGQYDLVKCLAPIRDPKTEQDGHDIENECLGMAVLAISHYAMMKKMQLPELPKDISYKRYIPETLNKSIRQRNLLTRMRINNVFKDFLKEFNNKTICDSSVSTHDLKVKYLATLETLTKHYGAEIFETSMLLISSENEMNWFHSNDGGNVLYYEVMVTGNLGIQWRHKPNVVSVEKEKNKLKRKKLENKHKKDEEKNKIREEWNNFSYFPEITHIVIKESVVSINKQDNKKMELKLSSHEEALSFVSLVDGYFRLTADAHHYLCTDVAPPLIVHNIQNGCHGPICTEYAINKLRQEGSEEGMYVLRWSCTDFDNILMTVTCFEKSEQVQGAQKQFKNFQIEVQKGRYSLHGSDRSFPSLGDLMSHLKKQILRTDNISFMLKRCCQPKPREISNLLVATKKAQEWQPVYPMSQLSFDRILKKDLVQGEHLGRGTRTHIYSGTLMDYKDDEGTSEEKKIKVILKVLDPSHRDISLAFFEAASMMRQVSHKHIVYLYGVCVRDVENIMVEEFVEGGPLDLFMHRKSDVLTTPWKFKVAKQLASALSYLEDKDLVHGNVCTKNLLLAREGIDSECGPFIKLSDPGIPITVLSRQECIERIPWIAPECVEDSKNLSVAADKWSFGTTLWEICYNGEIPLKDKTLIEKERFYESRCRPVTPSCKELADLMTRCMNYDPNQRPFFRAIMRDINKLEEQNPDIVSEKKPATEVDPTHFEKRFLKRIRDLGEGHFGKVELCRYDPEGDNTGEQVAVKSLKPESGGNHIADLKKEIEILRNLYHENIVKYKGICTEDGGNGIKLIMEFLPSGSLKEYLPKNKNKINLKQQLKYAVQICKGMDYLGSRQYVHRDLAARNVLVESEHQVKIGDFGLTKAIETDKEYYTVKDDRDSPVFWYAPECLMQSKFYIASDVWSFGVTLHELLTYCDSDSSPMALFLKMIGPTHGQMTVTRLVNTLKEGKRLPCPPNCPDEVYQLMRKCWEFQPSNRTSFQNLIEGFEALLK

[4] = molecular target: Non-receptor tyrosine-protein kinase TYK2 (Homo sapiens, UniProt P29597); experiment: Inhibition of […] TYK2 (unknown origin) using fluoresceinated peptide as substrate measured after 3 hrs by electrophoresis method
Chain of Non-receptor tyrosine-protein kinase TYK2 (P29597 whole entry): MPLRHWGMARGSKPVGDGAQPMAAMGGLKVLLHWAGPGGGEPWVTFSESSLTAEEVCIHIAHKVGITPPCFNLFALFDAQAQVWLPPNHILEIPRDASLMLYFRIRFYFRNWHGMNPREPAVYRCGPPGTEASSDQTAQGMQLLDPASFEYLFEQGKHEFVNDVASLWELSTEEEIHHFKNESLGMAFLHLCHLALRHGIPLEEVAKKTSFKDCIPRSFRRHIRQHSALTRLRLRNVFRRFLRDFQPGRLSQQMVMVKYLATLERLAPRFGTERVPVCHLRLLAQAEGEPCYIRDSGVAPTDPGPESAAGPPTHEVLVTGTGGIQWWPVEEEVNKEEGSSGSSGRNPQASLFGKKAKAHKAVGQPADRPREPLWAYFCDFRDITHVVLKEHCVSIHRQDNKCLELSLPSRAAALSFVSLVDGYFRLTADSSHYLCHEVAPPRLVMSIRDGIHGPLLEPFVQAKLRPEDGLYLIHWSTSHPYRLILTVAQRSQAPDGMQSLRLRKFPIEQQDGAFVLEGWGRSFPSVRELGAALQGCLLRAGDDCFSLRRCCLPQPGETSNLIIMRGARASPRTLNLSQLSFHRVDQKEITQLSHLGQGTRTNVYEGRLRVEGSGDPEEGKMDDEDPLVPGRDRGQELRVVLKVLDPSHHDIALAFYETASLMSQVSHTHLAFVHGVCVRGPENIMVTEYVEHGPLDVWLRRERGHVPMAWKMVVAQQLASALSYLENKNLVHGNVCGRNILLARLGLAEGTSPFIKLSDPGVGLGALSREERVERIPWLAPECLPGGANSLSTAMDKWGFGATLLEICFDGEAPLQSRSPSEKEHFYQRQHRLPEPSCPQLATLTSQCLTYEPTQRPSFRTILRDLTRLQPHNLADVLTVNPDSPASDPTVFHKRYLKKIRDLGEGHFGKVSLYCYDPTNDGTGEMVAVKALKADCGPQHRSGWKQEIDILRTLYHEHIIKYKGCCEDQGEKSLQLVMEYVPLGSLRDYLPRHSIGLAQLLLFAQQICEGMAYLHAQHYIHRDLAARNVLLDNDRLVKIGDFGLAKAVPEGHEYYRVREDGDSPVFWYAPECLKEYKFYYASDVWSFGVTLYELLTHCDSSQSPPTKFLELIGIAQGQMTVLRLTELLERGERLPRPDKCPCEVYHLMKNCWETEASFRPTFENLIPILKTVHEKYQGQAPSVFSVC

[5] = molecular target: Tyrosine-protein kinase JAK2 (Homo sapiens, UniProt O60674); experiment: Inhibition of GST-tagged JAK2 (unknown origin) using fluoresceinated peptide as substrate measured after 3 hrs by electrophoresis method
Chain of Tyrosine-protein kinase JAK2 (O60674 whole entry): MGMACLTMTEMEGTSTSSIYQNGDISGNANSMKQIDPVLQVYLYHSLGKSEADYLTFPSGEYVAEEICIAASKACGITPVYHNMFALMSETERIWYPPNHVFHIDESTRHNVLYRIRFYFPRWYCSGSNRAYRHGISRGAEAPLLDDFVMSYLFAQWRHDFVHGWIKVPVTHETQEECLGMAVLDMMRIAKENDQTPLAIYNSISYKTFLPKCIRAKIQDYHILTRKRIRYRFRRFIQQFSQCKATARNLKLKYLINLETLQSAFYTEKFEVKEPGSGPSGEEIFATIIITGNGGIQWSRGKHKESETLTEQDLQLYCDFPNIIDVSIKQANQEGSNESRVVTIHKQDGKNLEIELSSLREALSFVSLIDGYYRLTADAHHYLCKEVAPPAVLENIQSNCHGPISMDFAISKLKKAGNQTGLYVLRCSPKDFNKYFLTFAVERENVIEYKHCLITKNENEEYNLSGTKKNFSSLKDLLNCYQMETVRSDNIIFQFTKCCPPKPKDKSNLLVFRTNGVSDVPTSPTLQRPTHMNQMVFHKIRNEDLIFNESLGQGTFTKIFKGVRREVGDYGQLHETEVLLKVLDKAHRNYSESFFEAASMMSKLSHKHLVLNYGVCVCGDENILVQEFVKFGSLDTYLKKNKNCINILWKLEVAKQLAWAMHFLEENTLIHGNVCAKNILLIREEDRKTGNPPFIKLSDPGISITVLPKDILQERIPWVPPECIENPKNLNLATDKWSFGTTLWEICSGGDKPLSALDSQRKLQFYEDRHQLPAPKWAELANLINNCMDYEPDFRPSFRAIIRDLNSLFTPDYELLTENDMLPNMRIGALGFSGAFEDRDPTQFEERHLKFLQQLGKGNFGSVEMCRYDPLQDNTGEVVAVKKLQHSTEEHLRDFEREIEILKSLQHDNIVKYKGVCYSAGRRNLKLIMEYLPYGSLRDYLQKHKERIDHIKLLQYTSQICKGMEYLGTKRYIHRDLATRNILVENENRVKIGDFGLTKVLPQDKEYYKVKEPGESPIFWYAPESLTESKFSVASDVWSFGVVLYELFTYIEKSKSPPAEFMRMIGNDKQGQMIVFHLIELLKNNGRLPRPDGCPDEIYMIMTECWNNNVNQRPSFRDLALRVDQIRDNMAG

T-cell = experiment: Inhibition of IL2-induced human PBMC-derived T cell proliferation preincubated for 60 mins followed by IL-2 stimulation and measured after 3 days by [3H]thymidine incorporation based topcount method; type: functional
Blood = experiment: Inhibition of IL2-induced IFNgamma production in CD3/CD28 antibody-stimulated human whole blood measured after 18 hrs by ELISA; type: functional, tissue-based
[6] = Octanol-water partition coefficient, log P of the compound at pH 6.5 by HPLC analysis; type: physicochemical
[7] = Stability in mouse microsomes assessed as parent compound remaining measured after 10 mins; type: ADME, Microsome; conditions: read-out: Stability
[8] = Aqueous solubility of the compound; type: physicochemical; conditions: buffer
[9] = Stability in human liver microsomes; type: ADME, Microsome
[10] = Stability in mouse liver microsomes; type: ADME, Microsome
[11] = Stability in rat liver microsomes; type: ADME, Microsome
[12] = Permeability of the compound by PAMPA; type: ADME
[13] = Cmax in mouse at 10 mg/kg, po; type: ADME, organism-based; set-up: dose 10 mg/kg, route oral; conditions: in vivo
[14] = Time at which plasma concentration stays above in vitro IC50 for inhibition of IL2-induced IFNgamma production in CD3/CD28 antibody-stimulated human whole blood in mouse at 10 mg/kg, po; type: organism-based; conditions: in vivo
[15] = Solubility of the compound in 5%EtOH/5%TPGS/90%PEG300 formulation; type: physicochemical
[16] = Solubility of the compound in phosphate buffer using crystalline compound; type: physicochemical
[17] = Solubility of the compound in water using amorphous compound; type: physicochemical; conditions: buffer
[18] = Cmax in mouse at 50 mg/kg, po administered as microsuspension formulation; type: ADME, organism-based; set-up: dose 50 mg/kg, route oral; conditions: in vivo
[19] = Lipophilicity, log P of the compound; type: physicochemical; conditions: octanol/water
[20] = Solubility of the compound in water; type: physicochemical; conditions: buffer
[21] = AUC in mouse at 10 mg/kg, po; type: ADME, organism-based; conditions: in vivo
[22] = AUC in mouse at 40 mg/kg, po; type: ADME, organism-based; conditions: in vivo
Mus musculus [23] = experiment: Antiinflammatory activity in DBA1 mouse model of collagen-induced inflammation assessed as reduction in rheumatoid arthritis score in paw administered daily via oral gavage for 21 days starting from 21 days post-immunization and measured 3 times every week following booster immunization; type: functional, organism-based
[24] = Prodrug conversion in DBA1 mouse assessed as 4-((2R,3R)-l,3-Dihydroxybutan-2-ylamino)-6-phenylpyrrolo [ 1,2-b]pyridazine-3 carboxamide formation at 140 mg/kg, po administered via gavage; type: ADME, organism-based; conditions: in vivo

Row | IC50 [2] [nM] | IC50 [3] [nM] | IC50 [4] [nM] | IC50 [5] [nM] | IC50 (Blood) [µM] | Structure (SMILES) | IC50 (T-cell; Homo sapiens, T-cell) [nM] | other results
1 | – | – | – | – | – | C[C@@H]1CCN(C(=O)CC#N)C[C@@H]1N(C)c1ncnc2[nH]ccc12 | – | Activity (Mus musculus [1]): Active
2 | 160 | 180 | 1300 | 1800 | – | C[C@H](O)[C@H](CO)Nc1c(C(N)=O)cnn2cc(-c3ccccc3)cc12 | 2000 | –
3 | 13 | 38 | 210 | 370 | – | C[C@H](O)[C@@H](CO)Nc1c(C(N)=O)cnn2cc(-c3ccccc3)cc12 | 870 | –
4 | 180 | 110 | 510 | 1700 | – | C[C@@H](O)[C@H](CO)Nc1c(C(N)=O)cnn2cc(-c3ccccc3)cc12 | 1800 | –
5 | 1 | 32 | 120 | 25 | > 4 | COc1ccc(-c2cc3c(N[C@H](CO)CC4CC4)c(C(N)=O)cnn3c2)cn1 | 290 | –
6 | 2 | – | 27 | 57 | – | COc1ccc(-c2cc3c(N[C@H](CO)[C@@H](C)O)c(C(N)=O)cnn3c2)cn1 | 370 | logD [6]: 2.2
7 | 15 | 40 | 150 | 190 | > 4 | CC(C)Nc1c(C(N)=O)cnn2cc(-c3ccccc3)cc12 | – | remaining at 10 min [7]: < 50%; solubility [8]: < 1 µg/mL
8 | 3 | 23 | 180 | 30 | 3.9 | COc1ccc(-c2cc3c(N[C@H](CO)CC(C)C)c(C(N)=O)cnn3c2)cn1 | 190 | –
9 | 38 | 200 | 330 | – | – | COc1ccc(-c2cc3c(NC(CO)CO)c(C(N)=O)cnn3c2)cn1 | 11000 | –
10 | 100 | 620 | 2000 | 1400 | – | COc1ccc(-c2cc3c(NC(CO)[C@H](O)C4CC4)c(C(N)=O)cnn3c2)cn1 (stereo in doubt; 18) | – | IC50 (T-cell; t-cell): 4800 nM
11 | – | 5 | 34 | 70 | 0.5 | C[C@@H](O)[C@@H](CO)Nc1c(C(N)=O)cnn2cc(-c3ccccc3)cc12 | 70 | logD [6]: 2.42; Stability [9]: Stable; Stability [10]: Stable; Stability [11]: Stable; permeability [12]: Permeable; Cmax [13]: > 3000 nM; Time [14]: 3 h; solubility [15]: Insoluble; solubility [16]: Insoluble; solubility [17]: Insoluble; Cmax [18]: 100 nM
12 | 11 | 110 | 160 | 220 | > 4 | CC(C)CCNc1c(C(N)=O)cnn2cc(-c3ccccc3)cc12 | – | remaining at 10 min [7]: < 50%; solubility [8]: < 1 µg/mL; logP [19]: 5.08
13 | 5 | 13 | 20 | 50 | > 4 | NC(=O)c1cnn2cc(-c3ccccc3)cc2c1NC1CCCC1 | – | remaining at 10 min [7]: < 50%; solubility [8]: < 1 µg/mL
14 | 8 | 33 | 70 | 110 | > 4 | CC(C)(C)CNc1c(C(N)=O)cnn2cc(-c3ccccc3)cc12 | – | remaining at 10 min [7]: < 50%; solubility [8]: < 1 µg/mL
15 | 4 | 30 | 63 | 160 | > 4 | CC(C)CNc1c(C(N)=O)cnn2cc(-c3ccccc3)cc12 | – | remaining at 10 min [7]: < 50%; solubility [8]: < 1 µg/mL; logP [19]: 3.94
16 | 2 | 21 | 130 | 45 | 0.73 | COc1ccc(-c2cc3c(NC(CO)[C@H](O)C4CC4)c(C(N)=O)cnn3c2)cn1 (stereo in doubt; 19) | – | IC50 (T-cell; t-cell): 500 nM
17 | – | – | – | – | – | C[C@@H](O)[C@@H](COP(=O)([O-])[O-])Nc1c(C(N)=O)cnn2cc(-c3ccccc3)cc12.[Na+].[Na+] | – | solubility [20]: Soluble; AUC [21]: 1 µM·h; AUC [22]: 6 µM·h; Activity (Mus musculus [23]): Dose-dependent effect; Drug metabolism [24]: Metabolite_Detected

Reference: ChEMBL document CHEMBL4339199 (ACS Med Chem Lett, 2019)
